In data set [1] the target is T1, αIIbβ3 integrin (K562-αIIbβ3 cells) (Homo sapiens, UniProt P05106+P08514).
T1 construct: expressed in transfected cells; host or cells: K562 leukemia cells (from S. Blystone)
The data set is described as follows: Cell binding assay on K562-αIIbβ3 cells (flow cytometry). The conditions noted are these: K562-αIIbβ3 versus K562-αvβ3 cells. The procedure:
K562 cells stably expressing αIIbβ3, αvβ3, or αvβ5 were obtained from S. Blystone and maintained in IMDM media (Gibco) containing 10% FBS and 1.0 mg/mL geneticin. For binding assays, 10^5 cells were suspended in IBB, and varying concentrations of AgRP peptides were added. After 3 hour incubation at 4° C., the cells were centrifuged, aspirated, and resuspended in ice-cold BPBS containing a 1:20 dilution of fluorescein-conjugated goat anti-His antibody (Bethyl) for […]. The cells were then centrifuged, aspirated, and stored as pellets on ice until analysis by flow cytometry using a BD FACS Caliber instrument Becton Dickinson. Binding data was analyzed with FlowJo (Treestar, Inc.) and data was fit to sigmoidal plots using Kaleidagraph (Synergy Software) to calculate equilibrium dissociation constants. Experiments were performed at least 3 times and data are presented as average values with standard deviations.
To determine the integrin binding affinities and specificities of the engineered AgRP peptides, direct binding assays were performed using K562 leukemia cells that have been transfected to stably express different integrin receptors See J. Cell Biol. 127(4) (1994). Cells were incubated in the presence of varying concentrations of AgRP peptides at 4° C., to minimize receptor internalization, followed by staining with a fluorescein-conjugated anti-hexahistidine antibody and analysis by flow cytometry. Equilibrium dissociation constants (KD values) were determined by plotting AgRP peptide concentration (log scale) versus normalized mean fluorescence intensity, then fitting the data to a sigmoidal curve.
On the technique in general: In flow cytometry, cells or beads pass a laser one at a time.

The subject of data set [2] is human platelets. The conditions noted are these: for inhibition of platelet aggregation (in words): ADP-activated human platelets, comparison with eptifibatide; for IC50: read-out: aggregation (IC50; nM) human platelets, platelets activated with 25 μM ADP, A365 end point over 1 h. The procedure:
Human platelets isolated by pheresis were obtained from the Stanford Blood Center and stored in serum with 7% acid/citrate/dextrose (ACD) solution. Prior to use, the platelets were centrifuged, aspirated, washed once with Tyrode's buffer (140 mM NaCl, 3 mM KCl, 12 mM NaHCO3, 0.4 mM NaH2PO4, 2 mM MgCl2, 0.1% glucose, pH 7.4), and counted using a haemacytometer. Counted platelets were resuspended in fresh plasma to a final concentration of approximately 2.8×10^8 cells/mL. 180 μL of the platelet solution, or approximately 5×10^7 platelets, were added to separate wells in a 96-well microtiter plate. AgRP peptide or eptifibatide (Cell Sciences) were added to the wells at varying concentrations, after which the platelets were activated with 25 μM ADP. Absorbance at 365 nm was monitored over 1 hr using a Synergy 4 microplate reader (BioTek Instrumentation) with readings taken every 35 s, with 3 s of shaking between readings. […] Experiments were performed at least 3 times.
Next, the effects of the engineered AgRP peptides on αIIbβ3-mediated platelet aggregation were studied. Three αIIbβ3-specific peptides (2bA, 2bJ, and 2bO) and two β3-specific peptides (b3A and b3I) were tested again. […] Microtiter plates containing platelets in serum in the presence or absence of AgRP peptides were activated using ADP at a final concentration of 25 μM, and absorbance at 365 nm was monitored over 1 h.

The conditions of data set [3]: cited from earlier work; for bleeding in patients: clinical use.
For data set [4], the target named is T2, αvβ3 integrin (Homo sapiens, UniProt P05106+P06756).
T2 construct: purchased Millipore
T2 sequence (P06756 31-889 limits assumed): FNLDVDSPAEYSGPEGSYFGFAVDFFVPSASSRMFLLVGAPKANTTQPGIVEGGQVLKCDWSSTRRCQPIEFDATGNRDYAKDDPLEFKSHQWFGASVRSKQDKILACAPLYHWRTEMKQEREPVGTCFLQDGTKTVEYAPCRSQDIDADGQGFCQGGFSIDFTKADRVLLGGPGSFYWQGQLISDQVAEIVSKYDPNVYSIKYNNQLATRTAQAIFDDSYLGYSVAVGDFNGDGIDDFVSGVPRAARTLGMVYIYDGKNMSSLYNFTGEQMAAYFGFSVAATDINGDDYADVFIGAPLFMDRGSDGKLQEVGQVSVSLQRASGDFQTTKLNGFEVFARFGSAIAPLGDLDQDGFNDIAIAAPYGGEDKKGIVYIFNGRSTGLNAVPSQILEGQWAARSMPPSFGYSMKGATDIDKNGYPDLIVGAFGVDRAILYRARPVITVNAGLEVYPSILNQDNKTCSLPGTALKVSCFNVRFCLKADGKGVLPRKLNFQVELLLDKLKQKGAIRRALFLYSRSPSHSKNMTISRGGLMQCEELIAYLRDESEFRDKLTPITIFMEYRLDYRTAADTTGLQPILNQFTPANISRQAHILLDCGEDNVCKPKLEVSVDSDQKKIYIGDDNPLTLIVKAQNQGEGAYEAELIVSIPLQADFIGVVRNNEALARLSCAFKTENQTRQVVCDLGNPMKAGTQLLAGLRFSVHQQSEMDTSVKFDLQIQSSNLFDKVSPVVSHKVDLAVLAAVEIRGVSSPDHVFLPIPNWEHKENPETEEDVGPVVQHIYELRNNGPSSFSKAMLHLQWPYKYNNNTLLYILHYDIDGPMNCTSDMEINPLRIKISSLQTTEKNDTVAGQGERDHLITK
T2 sequence (P06756 891-1048 partner limits assumed): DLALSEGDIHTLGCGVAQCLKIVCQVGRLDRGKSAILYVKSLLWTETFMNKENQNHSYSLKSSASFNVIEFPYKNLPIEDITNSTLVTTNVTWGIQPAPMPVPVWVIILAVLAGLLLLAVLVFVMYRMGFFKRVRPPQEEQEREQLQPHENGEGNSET
T2 sequence (P05106 27-788): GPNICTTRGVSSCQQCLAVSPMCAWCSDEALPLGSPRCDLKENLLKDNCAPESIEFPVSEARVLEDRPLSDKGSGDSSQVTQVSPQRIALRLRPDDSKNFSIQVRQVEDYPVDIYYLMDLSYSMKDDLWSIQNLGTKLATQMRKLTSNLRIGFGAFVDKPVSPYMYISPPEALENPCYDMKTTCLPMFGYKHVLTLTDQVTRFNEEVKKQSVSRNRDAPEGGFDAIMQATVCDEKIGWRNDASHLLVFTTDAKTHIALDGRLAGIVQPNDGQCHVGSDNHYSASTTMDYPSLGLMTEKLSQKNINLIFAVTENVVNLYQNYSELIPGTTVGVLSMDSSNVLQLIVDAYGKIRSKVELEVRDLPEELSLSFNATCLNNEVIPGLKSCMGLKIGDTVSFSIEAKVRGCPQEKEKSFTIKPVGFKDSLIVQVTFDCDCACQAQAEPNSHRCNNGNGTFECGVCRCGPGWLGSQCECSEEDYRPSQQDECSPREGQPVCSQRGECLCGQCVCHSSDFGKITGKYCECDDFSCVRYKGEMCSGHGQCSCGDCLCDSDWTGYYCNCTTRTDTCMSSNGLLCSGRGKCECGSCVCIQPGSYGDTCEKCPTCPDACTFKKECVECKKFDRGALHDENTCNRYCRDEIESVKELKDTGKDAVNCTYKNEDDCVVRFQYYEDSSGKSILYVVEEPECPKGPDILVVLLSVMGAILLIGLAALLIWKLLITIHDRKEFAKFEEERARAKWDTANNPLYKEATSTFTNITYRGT
As to the kind of experiment: Yeast-displayed AgTx constructs binding to αvβ3 integrin. To be noted: 10 nM αvβ3, the lowest concentration tested. As for the experimental part: The yeast library was grown in selective media (SD-CAA, 20 g/L glucose, 6.7 g/L yeast nitrogen base without amino acids, 5.4 g/L Nα2HPO4, 8.6 g/L NaH2PO4.H2O, and 5 g/L Bacto casamino acids) and induced in selective media containing galactose (SG-CAA). For library screening, 5 to 25×10^6 yeast (depending on the sort round) were labeled with detergent-solubilized integrin and a 1:250 dilution of chicken anti-c-myc IgY (Invitrogen) in integrin binding buffer (IBB, 20 mM Tris pH 7.5 with 1 mM MgCl2, 1 mM MnCl2, 2 mM CaCl2, 100 mM NaCl, and 1 mg/mL bovine serum albumin) at room temperature for 2 h. The yeast cells were centrifuged at 4° C. and the supernatant was removed by aspiration. The yeast were then resuspended in ice-cold BPBS (PBS containing 1 mg/mL bovine serum albumen) containing a 1:100 dilution of phycoerythrin-conjugated goat anti-chicken IgY secondary antibody (Santa Cruz Biotechnology) and a 1:25 dilution of either fluorescein-conjugated anti-αvβ3 antibody (Biolegend) or fluorescein-conjugated anti-αIIb antibody (Biolegend), as appropriate. After incubation for 20 min on ice, the yeast were centrifuged, aspirated, and stored as pellets on ice until cell sorting. Yeast library screening was performed using a Becton Dickinson FACS Vantage SE instrument (Stanford FACS Core Facility) and CellQuest software. […]

In data set [5] the test system is αvβ3 integrin and the leukocyte integrin Mac-1. To be noted: cited from earlier work.
Data set [6] relates to ADP-induced platelet aggregation. To be noted: clinical use; cited from earlier work.
Data set [7] addresses αIIbβ3 integrin (Homo sapiens, UniProt P05106+P08514). To be noted: clinical use; cited from earlier work.

Where two headings read alike, the source gives them in different places. Bridge positions count the residues as written; N and C are the ends. Square brackets hold non-standard residues; d marks the D form. Peptide text beside a SMILES is read from it. hArg = N=C(N)NCCCC[C@H](N)C(=O)O; Mpa = O=C(O)CCS

In the case of `CC(C)C[C@@H]1NC(=O)[C@@H]2CSSC[C@@H]3NC(=O)[C@H]([C@@H](C)O)NC(=O)[C@H](C)NC(=O)[C@H](C)NC(=O)[C@@H]4CCCN4C(=O)[C@H](CC(=O)O)NC(=O)[C@H](CSSC[C@H](NC(=O)CNC(=O)[C@H](CCCNC(=N)N)NC(=O)[C@@H]4CCCN4C(=O)[C@H](CCCCN)NC(=O)[C@H](CC(=O)O)NC(=O)[C@H](CC(=O)O)NC(=O)[C@H](CC(=O)O)NC(=O)[C@H](CC(=O)O)NC(=O)[C@H](CCCCN)NC(=O)[C@H](Cc4ccc(O)cc4)NC(=O)[C@H](CC(=O)O)NC(=O)[C@@H](NC(=O)[C@@H](N)Cc4ccc(O)cc4)C(C)C)C(=O)N[C@@H](C(C)C)C(=O)N[C@@H](CCCNC(=N)N)C(=O)N[C@@H](CC(C)C)C(=O)N[C@@H](Cc4c[nH]cn4)C(=O)N[C@@H](CCC(=O)O)C(=O)N[C@@H](CO)C(=O)N2)NC(=O)[C@H](CSSC[C@@H](C(=O)N[C@@H](CCCNC(=N)N)C(=O)N[C@H](C(=O)N[C@@H](CCCNC(=N)N)C(=O)N[C@@H](Cc2c[nH]cn2)C(=O)N[C@@H](Cc2c[nH]cn2)C(=O)N[C@@H](Cc2c[nH]cn2)C(=O)N[C@@H](Cc2c[nH]cn2)C(=O)N[C@@H](Cc2c[nH]cn2)C(=O)N[C@@H](Cc2c[nH]cn2)C(=O)O)[C@@H](C)O)NC(=O)[C@H](Cc2ccc(O)cc2)NC(=O)[C@@H]2CSSC[C@H](NC(=O)[C@H](Cc4ccc(O)cc4)NC3=O)C(=O)N[C@@H](CCCNC(=N)N)C(=O)NCC(=O)N[C@@H](CCCNC(=N)N)C(=O)NCC(=O)N[C@@H](CC(=O)O)C(=O)N[C@@H](C(C)C)C(=O)N[C@@H](CCCCN)C(=O)N[C@@H](CC(C)C)C(=O)N[C@@H](CCCNC(=N)N)C(=O)N2)NC(=O)[C@@H]2CCCN2C(=O)[C@H](C(C)C)NC(=O)[C@H](CCC(N)=O)NC(=O)[C@H](CCC(N)=O)NC(=O)CNC1=O` [b3I], the “integrin binding specificity on K562 cell lines” value in data set [1] is “bound both K562-αIIbβ3 and K562-αvβ3 cells”. Also, in data set [2], the “inhibition of platelet aggregation (in words)” value was “slightly more effective”.
Usually IC50 stands for the concentration that gives 50% inhibition. `N=C(N)NCCCC[C@@H]1NC(=O)CCSSC[C@@H](C(N)=O)NC(=O)[C@@H]2CCCN2C(=O)[C@H](Cc2c[nH]c3ccccc23)NC(=O)[C@H](CC(=O)O)NC(=O)CNC1=O` [eptifibatide, Mpr-Har-Gly-Asp-Trp-Pro-Cys, reference compound] ([Mpa][hArg]GDWPC-NH2; disulfide 1-7): in data set [3], the bleeding in patients entry is “no increases in bleeding have been reported”. The values for the half-inhibitory concentration (IC50) in data set [2] and in data set [2] (listed as Eptifibatide) were 94 ± 14 nM and 80 nM, respectively.
As for “GCIAEDYGRCTWGGTPCCRGRGCICSGRGDNDLVCECT [AgTx2-7A, AgRP 7A loop 4 grafted into AgTx consensus 2]”, the “binding to αvβ3 integrin on yeast surface” value in data set [4] is “Binding was observed at 10 nM αvβ3”.
Take “Abciximab: αIIbβ3 integrin-specific antibody fragment c7E3”: in data set [3], the bleeding in patients result is on record as “bleeding issues in many patients”. Further, the “persistence of the antibody in the patient” value in data set [3] (in spite of a 12-hour infusion) is recorded as “over two-thirds of the antibody persists in the patient for several weeks”. Besides, the “binding to other integrins” value in data set [5] was “also binds to αvβ3 integrin and the leukocyte integrin Mac-1”. For the same compound, the “inhibition of ADP-induced platelet aggregation” value in data set [6] is reported as over 80%. The “blockage of αIIbβ3 integrin” value in data set [7] is on record as over 90%.
With “GCIAEDYGRCTWGGTPCCRGRPCRCSGRGDNDLVCECT [AgTX-1-7A, AgRP 7A loop 4 grafted into AgTx consensus 1]”, the “binding to αvβ3 integrin on yeast surface” value in data set [4] was “Binding was observed at 10 nM αvβ3”.
For the compound `CC(C)C[C@@H]1NC(=O)[C@@H]2CSSC[C@@H]3NC(=O)[C@H]([C@@H](C)O)NC(=O)[C@H](C)NC(=O)[C@H](C)NC(=O)[C@@H]4CCCN4C(=O)[C@H](CC(=O)O)NC(=O)[C@H](CSSC[C@H](NC(=O)CNC(=O)[C@H](CCCNC(=N)N)NC(=O)[C@@H]4CCCN4C(=O)[C@H](CCCCN)NC(=O)[C@H](CC(=O)O)NC(=O)[C@H](CC(=O)O)NC(=O)[C@H](CC(=O)O)NC(=O)[C@H](CC(=O)O)NC(=O)[C@H](CCCCN)NC(=O)[C@H](Cc4ccc(O)cc4)NC(=O)[C@H](CC(=O)O)NC(=O)[C@@H](NC(=O)[C@@H](N)Cc4ccc(O)cc4)C(C)C)C(=O)N[C@@H](C(C)C)C(=O)N[C@@H](CCCNC(=N)N)C(=O)N[C@@H](CC(C)C)C(=O)N[C@@H](Cc4c[nH]cn4)C(=O)N[C@@H](CCC(=O)O)C(=O)N[C@@H](CO)C(=O)N2)NC(=O)[C@H](CSSC[C@@H](C(=O)N[C@@H](CCCNC(=N)N)C(=O)N[C@H](C(=O)N[C@@H](CCCNC(=N)N)C(=O)N[C@@H](Cc2c[nH]cn2)C(=O)N[C@@H](Cc2c[nH]cn2)C(=O)N[C@@H](Cc2c[nH]cn2)C(=O)N[C@@H](Cc2c[nH]cn2)C(=O)N[C@@H](Cc2c[nH]cn2)C(=O)N[C@@H](Cc2c[nH]cn2)C(=O)O)[C@@H](C)O)NC(=O)[C@H](Cc2ccc(O)cc2)NC(=O)[C@@H]2CSSC[C@H](NC(=O)[C@H](Cc4ccc(O)cc4)NC3=O)C(=O)N[C@@H](C(C)C)C(=O)NCC(=O)N[C@@H](CCCNC(=N)N)C(=O)NCC(=O)N[C@@H](CC(=O)O)C(=O)N[C@@H](C(C)C)C(=O)N[C@@H](CCCNC(=N)N)C(=O)N[C@@H](CCCNC(=N)N)C(=O)N[C@@H](CCCCN)C(=O)N2)NC(=O)[C@@H]2CCCN2C(=O)[C@H](C(C)C)NC(=O)[C@H](CCC(N)=O)NC(=O)[C@H](CCC(N)=O)NC(=O)CNC1=O` [b3A], the “integrin binding specificity on K562 cell lines” value in data set [1] is “bound both K562-αIIbβ3 and K562-αvβ3 cells”. Besides, the “inhibition of platelet aggregation (in words)” value in data set [2] is given as “slightly more effective”.

Source of the values: patent publication US8778888B2, “Cystine knot peptides binding to alpha IIb beta 3 integrins and methods of use” (The Board of Trustees of the Leland Stanford Junior …, priority 2009, dated 2014).
